Measurements as given in patent US20250320206A1, “STAT6 DEGRADERS” (Gilead Sciences, Inc., priority 2024, published 2025).

system: Eotaxin-3 release in human whole blood stimulated with IL-4; assay: Human Whole Blood Eotaxin-3 Assay (IL-4 stimulated eotaxin-3 release); format: cell-based; conditions: IL-4 stimulation, 48 h, values given for compounds with >80% Emax, geometric mean
Description: Human Whole Blood Eotaxin-3 Assay
This was a human whole blood assay using recombinant human Interleukin 4 to stimulate the blood and measuring the ability of the test compounds to inhibit eotaxin-3 release. The biological activities of the test compounds have been tested in human whole blood stimulated with IL-4 measuring Eotaxin-3 release. The test compounds were added to 384 well clear flat-bottom plate in a 4-fold serial dilution in triplicates using a liquid handler. Human whole blood stabilized in lithium-heparin tubes was added in a volume of 65 μL per well, resulting in a final DMSO concentration of 0.5%. The plate is incubated for 2 h at 37° C. under 5% CO2/95% air. Subsequently, 5 μL of recombinant human IL-4 (R&D Systems, cat #204-ILB) was added to the wells to a final concentration of […]. The plate was incubated for 48 h at 37° C. under 5% CO2/95% air. The plate was spun down for 10 minutes at 500×g and 20 μL supernatant was harvested and transferred to a 384 well v-bottom plate using a liquid handler and stored at −20° C. until further analysis. 10 μL supernatant was used to measure the level of Eotaxin-3 (CCL26) using Human Eotaxin-3 MSD kit from Mesocsale (Cat #K251UEK-4). The assay was performed according to the manufacture instructions.
The data from the human whole blood eotaxin-3 assay is shown in FIG. 2 for Examples 3u208, 3u246, 3u118, 3u119, 3u120, and 3u74 (where the effect in % is plotted against the test concentration in M on a log scale).

| Structure (SMILES) | EC50 |
| --- | --- |
| CNc1cc(=O)n(-c2ccnc3c2cc([C@H](C)N2CC=C(c4c(C)cc(C(=O)N5CCC(CN6CCN(Cc7ccc8c(c7)C7(CC7)C(=O)N8C7CCC(=O)NC7=O)C[C@@H]6C)CC5)cc4F)CC2)n3C)cc1OC (stereo partly drawn) [Example 3u117, 3-(5′-(((S)-4-((1-(3-fluoro-4-(1-((S)-1-(4-(5-methoxy-4-(methylamino)-2-oxopyridin-1 (2H)-yl)-1-methyl-1H-pyrrolo[2,3-b]pyridin-2-yl)ethyl)-1,2,3,6-tetrahydropyridin-4-yl)-5-methylbenzoyl)piperidin-4-yl)methyl)-3-methylpiperazin-1-yl)methyl)-2′-oxospiro[cyclopropane-1,3′-indolin]-1′-yl)piperidine-2,6-dione] | 1210 nM |
| CNc1ccn(-c2ccnc3c2cc([C@H](C)N2CC=C(c4c(C)cc(C(=O)N5CCC(CN6CCN(Cc7ccc8c(c7)n(C7CC7)c(=O)n8C7CCC(=O)NC7=O)C[C@@H]6C)CC5)cc4F)CC2)n3C)c(=O)c1OC (stereo partly drawn) [Example 3u135, 3-(3-cyclopropyl-5-(((S)-4-((1-(3-fluoro-4-(1-((S)-1-(4-(3-methoxy-4-(methylamino)-2-oxopyridin-1 (2H)-yl)-1-methyl-1H-pyrrolo[2,3-b]pyridin-2-yl)ethyl)-1,2,3,6-tetrahydropyridin-4-yl)-5-methylbenzoyl)piperidin-4-yl)methyl)-3-methylpiperazin-1-yl)methyl)-2-oxo-2,3-dihydro-1H-benzo[d]imidazol-1-yl)piperidine-2,6-dione] | 185 nM |
| CNc1cc(=O)n(-c2ccnc3c2cc([C@H](C)N2CC=C(c4c(C)cc(C(=O)N5CCC(F)(CN6CCN(c7ccc8c(c7)C7(CC7)C(=O)N8C7CCC(=O)NC7=O)CC6)CC5)cc4F)CC2)n3C)cc1F (stereo partly drawn) [Example 3u136, 3-(5′-(4-((4-fluoro-1-(3-fluoro-4-(1-((S)-1-(4-(5-fluoro-4-(methylamino)-2-oxopyridin-1 (2H)-yl)-1-methyl-1H-pyrrolo[2,3-b]pyridin-2-yl)ethyl)-1,2,3,6-tetrahydropyridin-4-yl)-5-methyl-benzoyl)piperidin-4-yl)methyl)piperazin-1-yl)-2′-oxospiro[cyclopropane-1,3′-indolin]-1′-yl)piperidine-2,6-dione] | 16.4 nM |
| CNc1ccn(-c2ccnc3c2cc([C@H](C)N2CC=C(c4c(C)cc(C(=O)N5CCC(CN6CCN(Cc7ccc8c(c7)C7(CCOCC7)C(=O)N8C7CCC(=O)NC7=O)CC6)CC5)cc4F)CC2)n3C)c(=O)c1 (stereo partly drawn) [Example 3u257, 3-(5-((4-((1-(3-fluoro-5-methyl-4-(1-((S)-1-(1-methyl-4-(4-(methylamino)-2-oxopyridin-1 (2H)-yl)-1H-pyrrolo[2,3-b]pyridin-2-yl)ethyl)-1,2,3,6-tetrahydropyridin-4-yl)benzoyl)-piperidin-4-yl)methyl)piperazin-1-yl)methyl)-2-oxo-2′,3′,5′,6′-tetrahydrospiro[indoline-3,4′-pyran]-1-yl)piperidine-2,6-dione] | 24.2 nM |
| C[C@@H](c1cc2c(-n3cc(F)c4c(c3=O)CCN4)ccnc2n1C)N1CC=C(c2c(F)cc(C(=O)N3CCC(CN4CCN(c5cc6c(cc5F)n(C5CCC(=O)NC5=O)c(=O)n6C)CC4)CC3)cc2F)CC1 (stereo partly drawn) [Example 3u269, 3-(5-(4-((1-(3,5-difluoro-4-(1-((S)-1-(4-(7-fluoro-4-oxo-1,2,3,4-tetrahydro-5H-pyrrolo[3,2-c]pyridin-5-yl)-1-methyl-1H-pyrrolo[2,3-b]pyridin-2-yl)ethyl)-1,2,3,6-tetrahydropyridin-4-yl)benzoyl)piperidin-4-yl)methyl)piperazin-1-yl)-6-fluoro-3-methyl-2-oxo-2,3-dihydro-1H-benzo[d]-imidazol-1-yl)piperidine-2,6-dione] | 96.3 nM |

Now those with a lower EC50, led by results:

| EC50 | Structure (SMILES) |
| --- | --- |
| 11.2 nM | CNc1ccn(-c2ccnc3c2cc([C@H](C)N2CC=C(c4c(C)cc(C(=O)N5CCn6c(nnc6C6CCN(c7ccc8c(c7)n(C)c(=O)n8C7CCC(=O)NC7=O)CC6)C5)cc4F)CC2)n3C)c(=O)c1 (stereo partly drawn) [Example 3u260, 3-(5-(4-(7-(3-fluoro-5-methyl-4-(1-((S)-1-(1-methyl-4-(4-(methylamino)-2-oxopyridin-1 (2H)-yl)-1H-pyrrolo[2,3-b]pyridin-2-yl)ethyl)-1,2,3,6-tetrahydropyridin-4-yl)benzoyl)-5,6,7,8-tetrahydro-[1,2,4]triazolo[4,3-a]pyrazin-3-yl)piperidin-1-yl)-3-methyl-2-oxo-2,3-dihydro-1H-benzo[d]imidazol-1-yl)piperidine-2,6-dione] |
| 8.1 nM | Cc1cc(C(=O)N2CCC(CN3CCN(c4cc5c(cc4F)n(C4CCC(=O)NC4=O)c(=O)n5C)CC3)CC2)cc(F)c1C1=CCN([C@@H](C)c2cc3c(-n4cc(F)c5c(c4=O)CCN5)ccnc3n2C)CC1 (stereo partly drawn) [Example 3u253, 3-(6-fluoro-5-(4-((1-(3-fluoro-4-(1-((S)-1-(4-(7-fluoro-4-oxo-1,2,3,4-tetrahydro-5H-pyrrolo[3,2-c]pyridin-5-yl)-1-methyl-1H-pyrrolo[2,3-b]pyridin-2-yl)ethyl)-1,2,3,6-tetrahydropyridin-4-yl)-5-methylbenzoyl)piperidin-4-yl)methyl)piperazin-1-yl)-3-methyl-2-oxo-2,3-dihydro-1H-benzo[d]imidazol-1-yl)piperidine-2,6-dione] |
| 8 nM | C[C@@H](c1cc2c(-n3cc(F)c4c(c3=O)CCN4)ccnc2n1C)N1CC=C(c2c(F)cc(C(=O)N3CCC(CN4CCN(Cc5ccc6c(c5)n(C)c(=O)n6C5CCC(=O)NC5=O)CC4)CC3)cc2F)CC1 (stereo partly drawn) [Example 3u83, 3-(5-((4-((1-(3,5-difluoro-4-(1-((S)-1-(4-(7-fluoro-4-oxo-1,2,3,4-tetrahydro-5H-pyrrolo[3,2-c]pyridin-5-yl)-1-methyl-1H-pyrrolo[2,3-b]pyridin-2-yl)ethyl)-1,2,3,6-tetrahydropyridin-4-yl)benzoyl)piperidin-4-yl)methyl)piperazin-1-yl)methyl)-3-methyl-2-oxo-2,3-dihydro-1H-benzo[d]-imidazol-1-yl)piperidine-2,6-dione] |
| 5.9 nM | C[C@H]1CN(Cc2ccc3c(c2)n(C)c(=O)n3C2CCC(=O)NC2=O)CCN1CC1CCN(C(=O)c2cc(F)c(C3=CCN([C@@H](C)c4cc5c(-n6cc(F)c7c(c6=O)CCN7)ccnc5n4C)CC3)c(F)c2)CC1 (stereo partly drawn) [Example 3u8, 3-(5-(((S)-4-((1-(3,5-difluoro-4-(1-((S)-1-(4-(7-fluoro-4-oxo-1,2,3,4-tetrahydro-5H-pyrrolo[3,2-c]pyridin-5-yl)-1-methyl-1H-pyrrolo[2,3-b]pyridin-2-yl)ethyl)-1,2,3,6-tetrahydropyridin-4-yl)benzoyl)piperidin-4-yl)methyl)-3-methylpiperazin-1-yl)methyl)-3-methyl-2-oxo-2,3-dihydro-1H-benzo[d]imidazol-1-yl)piperidine-2,6-dione] |
| 5.6 nM | CNc1nc(=O)n(-c2ccnc3c2cc([C@H](C)N2CC=C(c4c(C)cc(C(=O)N5CCC(CN6CCN(c7cc8c(cc7F)n(C7CCC(=O)NC7=O)c(=O)n8C)CC6)CC5)cc4F)CC2)n3C)cc1F (stereo partly drawn) [Example 3u268, 3-(6-fluoro-5-(4-((1-(3-fluoro-4-(1-((S)-1-(4-(5-fluoro-4-(methylamino)-2-oxopyrimidin-1 (2H)-yl)-1-methyl-1H-pyrrolo[2,3-b]pyridin-2-yl)ethyl)-1,2,3,6-tetrahydropyridin-4-yl)-5-methylbenzoyl)piperidin-4-yl)methyl)piperazin-1-yl)-3-methyl-2-oxo-2,3-dihydro-1H-benzo[d]-imidazol-1-yl)piperidine-2,6-dione] |
